Experimental data from patent US11578084B2, “Condensed ring compounds having dopamine D3 receptor antagonistic effect” (Shionogi & Co., Ltd., priority 2018, dated 2023).
Where two headings read alike, the source gives them in different places.

How the values were obtained:
[1] = molecular target: human recombinant dopamine D2 receptor (Homo sapiens (Human), UniProt P14416); test: Test of binding inhibition for dopamine D2 receptor ([3H]-Methylspiperone SPA); conditions: Jump-In HEK cell membranes, read-out: hD2_Ki
Procedure, shortened: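 Incubation was 120 min at 25° C. with human recombinant D2 membranes from Jump-In HEK cells (2 μg/well), WGA SPA beads (0.2 mg/well) and [3H]-Methylspiperone as radioligand.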

[2] = molecular target: hERG channel (IKr) (Homo sapiens (Human), UniProt Q12809); test: hERG test (whole cell patch clamp, IKr); type: cell-based; conditions: human, CHO cells expressing hERG channel, pH 7.4, 3 μM, tail peak current
From the text: Test Example 10: hERG Test
For the purpose of assessing risk of an electrocardiogram QT interval prolongation of the compound of the present invention, effects of the compound of the present invention on delayed rectifier K+ current (IKr), which plays an important role in the ventricular repolarization process, was studied using CHO cells expressing human ether-a-go-go related gene (hERG) channel.
After a cell was retained at a membrane potential of −80 mV by whole cell patch clamp method using an automated patch clamp system (QPatch; Sophion Bioscience A/S) and gave a leak potential of −50 mV, IKr induced by depolarization pulse stimulation at +20 mV for 2 seconds and, further, repolarization pulse stimulation at −50 mV for 2 seconds, was recorded. After the generated current was stabilized, extracellular solution (NaCl: 145 mmol/L, KCl: 4 mmol/L, CaCl2): 2 mmol/L, MgCl2: 1 mmol/L, glucose: 10 mmol/L, HEPES (4-(2-hydroxyethyl)-1-piperazineethanesulfonic acid): 10 mmol/L, pH=7.4), in which the compound of the present invention had been dissolved at an objective concentration in the extracellular solution, was applied to the cell at room temperature for 7 minutes or more. From the recording IKr, an absolute value of the tail peak current was measured based on the current value at the resting membrane potential using analysis software (QPatch Assay software; Sophion Bioscience A/S). Further, the % inhibition of tail peak current for the compound of the present invention relative to the tail peak current after application of the solution (0.1% dimethyl sulfoxide solution) was calculated to assess influence of the compound of the present invention on IKr.

[3] = molecular target: human recombinant dopamine D3 receptor (Homo sapiens (Human), UniProt P35462); test: Test of binding inhibition for dopamine D3 receptor ([3H]-Methylspiperone SPA); conditions: Jump-In HEK cell membranes, 2 nM [3H]-Methylspiperone, 120 min at 25° C.; read-out: hD3_Ki
Procedure, shortened: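 SPA radioligand binding on Jump-In HEK membranes expressing human D3 receptor (4 µg/well) with 2 nM [3H]-methylspiperone (final), incubated 120 min at 25 °C. Non-specific binding defined with 10 µM butaclamol. Percent inhibition computed against total and non-specific binding; Ki from dose-response curves.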

[4] = 1.2 nM [3H]-Methylspiperone, 120 min at 25° C.

human recombinant dopamine D2 receptor, sequence (P14416 whole entry): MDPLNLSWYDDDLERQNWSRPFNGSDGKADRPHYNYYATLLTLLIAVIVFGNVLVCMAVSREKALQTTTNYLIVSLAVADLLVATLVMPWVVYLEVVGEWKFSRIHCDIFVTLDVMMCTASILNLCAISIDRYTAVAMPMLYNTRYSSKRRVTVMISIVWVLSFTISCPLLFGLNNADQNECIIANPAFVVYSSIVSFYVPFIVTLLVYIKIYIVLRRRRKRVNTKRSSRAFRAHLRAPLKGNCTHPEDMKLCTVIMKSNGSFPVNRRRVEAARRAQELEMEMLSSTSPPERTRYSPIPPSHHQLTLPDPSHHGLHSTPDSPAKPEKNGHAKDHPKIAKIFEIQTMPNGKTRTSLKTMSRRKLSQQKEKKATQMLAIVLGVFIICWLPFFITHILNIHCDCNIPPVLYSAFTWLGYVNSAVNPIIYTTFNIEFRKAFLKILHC
hERG channel (IKr), sequence (Q12809 whole entry): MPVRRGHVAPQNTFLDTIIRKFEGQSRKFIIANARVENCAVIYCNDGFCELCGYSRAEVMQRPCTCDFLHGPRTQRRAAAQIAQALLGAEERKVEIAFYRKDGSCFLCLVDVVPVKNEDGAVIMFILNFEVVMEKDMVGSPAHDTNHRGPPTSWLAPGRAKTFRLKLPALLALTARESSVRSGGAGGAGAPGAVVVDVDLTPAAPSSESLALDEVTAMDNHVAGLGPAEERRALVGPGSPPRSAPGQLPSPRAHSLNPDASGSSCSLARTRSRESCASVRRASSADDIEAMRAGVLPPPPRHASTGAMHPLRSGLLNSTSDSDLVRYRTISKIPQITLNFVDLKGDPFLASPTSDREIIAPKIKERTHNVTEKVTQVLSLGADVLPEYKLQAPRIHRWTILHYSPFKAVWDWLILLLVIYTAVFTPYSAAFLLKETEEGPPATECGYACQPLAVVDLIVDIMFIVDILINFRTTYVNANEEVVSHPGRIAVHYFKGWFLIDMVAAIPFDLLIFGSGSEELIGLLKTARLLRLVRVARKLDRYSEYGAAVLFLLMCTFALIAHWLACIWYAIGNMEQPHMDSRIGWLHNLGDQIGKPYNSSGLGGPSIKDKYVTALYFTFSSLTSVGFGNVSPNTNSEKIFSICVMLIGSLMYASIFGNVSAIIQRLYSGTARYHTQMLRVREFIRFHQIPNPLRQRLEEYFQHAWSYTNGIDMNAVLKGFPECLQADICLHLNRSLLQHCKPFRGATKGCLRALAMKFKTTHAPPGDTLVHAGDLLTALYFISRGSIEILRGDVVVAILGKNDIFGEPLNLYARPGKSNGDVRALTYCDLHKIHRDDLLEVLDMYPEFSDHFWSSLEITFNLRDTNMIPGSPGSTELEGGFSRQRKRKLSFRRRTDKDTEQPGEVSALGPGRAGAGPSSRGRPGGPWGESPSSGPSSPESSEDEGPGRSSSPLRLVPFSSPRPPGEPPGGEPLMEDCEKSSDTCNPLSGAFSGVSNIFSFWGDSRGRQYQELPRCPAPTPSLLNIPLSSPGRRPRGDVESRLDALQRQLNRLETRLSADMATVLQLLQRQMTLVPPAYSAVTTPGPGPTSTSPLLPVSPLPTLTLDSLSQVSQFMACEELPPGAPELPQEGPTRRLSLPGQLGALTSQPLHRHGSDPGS
human recombinant dopamine D3 receptor, sequence (P35462 whole entry): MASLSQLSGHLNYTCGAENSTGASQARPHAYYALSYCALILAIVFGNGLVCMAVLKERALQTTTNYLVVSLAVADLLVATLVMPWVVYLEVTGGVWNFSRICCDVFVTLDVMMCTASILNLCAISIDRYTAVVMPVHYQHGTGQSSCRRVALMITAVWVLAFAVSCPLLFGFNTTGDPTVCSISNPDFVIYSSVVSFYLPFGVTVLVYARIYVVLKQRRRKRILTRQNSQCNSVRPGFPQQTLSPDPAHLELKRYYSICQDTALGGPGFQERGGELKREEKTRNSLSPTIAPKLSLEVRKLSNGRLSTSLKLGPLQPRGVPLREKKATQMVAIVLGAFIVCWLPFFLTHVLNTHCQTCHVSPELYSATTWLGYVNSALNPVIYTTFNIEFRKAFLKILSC

COC(CN1CCc2ccc(OCC(F)(F)F)nc2CC1)[C@H]1CC[C@H](NC(=O)Cc2cnc(C)o2)CC1 (single isomer, unassigned) [Example I-045]
Ki [1, 4]: 1700 nM | inhibition at 3 µM [2]: 18.3% | Ki [3]: 0.81 nM

COC(CN1CCc2sc(OCC(C)(F)F)nc2C1)C1CC2(CC(NC(=O)c3cccc4nn(C)cc34)C2)C1 (single isomer, unassigned) [Example I-047]
Ki [1, 4]: 110 nM | inhibition at 3 µM [2]: 13.6% | Ki [3]: 0.058 nM

Cn1cc2c(C(=O)N[C@H]3CC4(C3)C[C@](F)(CCN3CCc5nc(OCC(F)(F)F)sc5CC3)C4)cccc2n1 (single isomer, unassigned) [Example I-049]
Ki [1, 4]: 310 nM | inhibition at 3 µM [2]: 36.8% | Ki [3]: 0.33 nM

CC(Oc1nc2c(s1)CCN(CC[C@H]1CC[C@H](NC(=O)c3cccc4nn(C)cc34)CC1)CC2)C(F)F (single isomer, unassigned) [Example I-112]
Ki [1, 4]: > 2200 nM | inhibition at 3 µM [2]: 23.5% | Ki [3]: 0.12 nM

CN1Cc2c(C(=O)N[C@H]3CC[C@H](CCN4CCc5sc(OC6CC(F)(F)C6)nc5C4)CC3)cccc2C1=O [Example I-001]
Ki [1, 4]: 290 nM | inhibition at 3 µM [2]: 21.3% | Ki [3]: 0.2 nM

Cc1ncc(CC(=O)N[C@H]2CC[C@H](CCN3CCc4sc(OC5CC(F)(F)C5)nc4C3)CC2)o1 [Example I-002]
inhibition at 3 µM [2]: 30.3% | Ki [3]: 0.47 nM

Cn1cc2c(C(=O)N[C@H]3CC[C@H](CCN4CCc5ccc(OCC(C)(C)F)nc5CC4)CC3)cccc2n1 [Example I-003]
Ki [1, 4]: 780 nM | inhibition at 3 µM [2]: 31% | Ki [3]: 0.15 nM

Cn1cc(CC(=O)N[C@H]2CC[C@H](CCN3CCc4nc(OCC(C)(F)F)sc4CC3)CC2)cn1 [Example I-004]
Ki [1, 4]: 700 nM | inhibition at 3 µM [2]: 21.6% | Ki [3]: 0.15 nM

Cc1ncc(CC(=O)N[C@H]2CC[C@H](CCN3CCc4ccc(OC(C)C)nc4CC3)CC2)o1 [Example I-006]
Ki [1, 4]: > 1900 nM | inhibition at 3 µM [2]: 23% | Ki [3]: 0.59 nM

Cc1nnc(CC(=O)N[C@H]2CC[C@H](CCN3CCc4ccc(OC(C)C)nc4CC3)CC2)s1 [Example I-007]
Ki [1, 4]: 1500 nM | inhibition at 3 µM [2]: 33.7% | Ki [3]: 0.68 nM

Cc1nc(CC(=O)N[C@H]2CC[C@H](CCN3CCc4nc(OCC(C)(F)F)sc4CC3)OC2)no1 [Example I-008]
Ki [1, 4]: > 1900 nM | inhibition at 3 µM [2]: 20.8% | Ki [3]: 0.96 nM

Cn1cc2c(C(=O)N[C@H]3CC[C@H](CCN4CCc5nc(OCC(C)(F)F)sc5CC4)OC3)cccc2n1 [Example I-009]
Ki [1, 4]: 690 nM | inhibition at 3 µM [2]: 33.8% | Ki [3]: 0.12 nM

COc1cc(CC(=O)N[C@H]2CC[C@H](CCN3CCc4nc(OCC(C)(F)F)sc4CC3)OC2)on1 [Example I-010]
Ki [1, 4]: 930 nM | inhibition at 3 µM [2]: 32% | Ki [3]: 0.13 nM

Cc1nnc(CC(=O)N[C@H]2CC[C@H](CCN3CCc4sc(C5CC(F)(F)C5)nc4C3)OC2)o1 [Example I-011]
Ki [1, 4]: 950 nM | inhibition at 3 µM [2]: 10.6% | Ki [3]: 0.32 nM

CN1Cc2c(C(=O)N[C@H]3CC[C@H](CCN4CCc5sc(C6CC(F)(F)C6)nc5C4)CC3)cccc2C1=O [Example I-012]
Ki [1, 4]: 260 nM | inhibition at 3 µM [2]: 19% | Ki [3]: 0.15 nM

Cc1nc(CC(=O)N[C@H]2CC[C@](F)(CCN3CCc4nc(OCC(C)(F)F)sc4CC3)CC2)no1 [Example I-013]
Ki [1, 4]: 920 nM | inhibition at 3 µM [2]: 21.4% | Ki [3]: 0.53 nM

Cc1nnc(CC(=O)N[C@H]2CC[C@](F)(CCN3CCc4nc(OCC(C)(F)F)sc4CC3)CC2)o1 [Example I-014]
Ki [1, 4]: 980 nM | inhibition at 3 µM [2]: 3.83% | Ki [3]: 0.48 nM

Cc1cnc(CC(=O)N[C@H]2CC[C@](F)(CCN3CCc4nc(OCC(C)(F)F)sc4CC3)CC2)o1 [Example I-015]
Ki [1, 4]: 1000 nM | inhibition at 3 µM [2]: 24.3% | Ki [3]: 0.26 nM

Cn1cc2c(C(=O)NN3CCC(CCN4CCc5ccc(OCC(F)(F)F)nc5CC4)CC3)cccc2n1 [Example I-016]
Ki [1, 4]: 850 nM | inhibition at 3 µM [2]: 19.1% | Ki [3]: 0.039 nM

Cn1cc(CC(=O)N[C@H]2CC[C@](F)(CCN3CCc4ccc(OCC(C)(F)F)nc4CC3)CC2)cn1 [Example I-017]
Ki [1, 4]: 240 nM | inhibition at 3 µM [2]: 21.6% | Ki [3]: 0.063 nM

Cc1nnc(CC(=O)N[C@H]2CC[C@](F)(CCN3CCc4ccc(OCC(C)(F)F)nc4CC3)CC2)s1 [Example I-018]
Ki [1, 4]: 190 nM | inhibition at 3 µM [2]: 33.8% | Ki [3]: 0.035 nM

Cc1ncccc1C(=O)N[C@H]1CC[C@H](CCN2CCc3nc(OC4CC(F)(F)C4)sc3CC2)CC1 [Example I-019]
Ki [1, 4]: > 1800 nM | inhibition at 3 µM [2]: 8.86% | Ki [3]: 0.37 nM

Cc1nnc(CC(=O)N[C@H]2CC[C@H](CCN3CCc4nc(OC5CC(F)(F)C5)sc4CC3)CC2)o1 [Example I-020]
Ki [1, 4]: > 1800 nM | inhibition at 3 µM [2]: 23.1% | Ki [3]: 0.27 nM

Cn1cc(CC(=O)N[C@H]2CC[C@H](CCN3CCc4nc(OC5CC(F)(F)C5)sc4CC3)CC2)cn1 [Example I-021]
Ki [1, 4]: 1900 nM | inhibition at 3 µM [2]: 24.3% | Ki [3]: 0.15 nM

Cc1cc(OCC(=O)N[C@H]2CC[C@H](CCN3CCc4nc(OC5CC(F)(F)C5)sc4CC3)CC2)no1 [Example I-022]
Ki [1, 4]: > 2300 nM | inhibition at 3 µM [2]: 32.6% | Ki [3]: 0.1 nM

Cc1ncc(/C=C/C(=O)N[C@H]2CC[C@](F)(CCN3CCc4ccc(OCC(C)(F)F)nc4CC3)CC2)cn1 [I′-47]
Ki ([1]; [3H]-Methylspiperone 1.2 nM): 41 nM | Ki [3]: 0.081 nM

Cc1ncc(/C=C/C(=O)N[C@H]2CC[C@](F)(CCN3CCc4nc(OCC(F)(F)F)sc4CC3)CC2)cn1 [I′-48]
Ki ([1]; [3H]-Methylspiperone 1.2 nM): > 2200 nM | Ki [3]: 0.27 nM

Cn1c(C(=O)N[C@H]2CC[C@](F)(CCN3CCc4nc(OCC(F)(F)F)sc4CC3)CC2)cccc1=O [I′-49]
Ki ([1]; [3H]-Methylspiperone 1.2 nM): 290 nM | Ki [3]: 0.59 nM

Cc1nc(CC(=O)N[C@H]2CC[C@](F)(CCN3CCc4nc(OCC(F)(F)F)sc4CC3)CC2)nn1C [I′-50]
Ki ([1]; [3H]-Methylspiperone 1.2 nM): 1600 nM | Ki [3]: 0.23 nM

Cc1ncc(CC(=O)N[C@H]2CC[C@](F)(CCN3CCc4nc(OCC(F)(F)F)sc4CC3)CC2)cn1 [I′-51]
Ki ([1]; [3H]-Methylspiperone 1.2 nM): 890 nM | Ki [3]: 0.48 nM

Cc1cnc(OCC(=O)N[C@H]2CC[C@](F)(CCN3CCc4nc(OCC(F)(F)F)sc4CC3)CC2)cn1 [I′-52]
Ki ([1]; [3H]-Methylspiperone 1.2 nM): > 2200 nM | Ki [3]: 0.17 nM

Cc1cnc(OCC(=O)N[C@H]2CC[C@](F)(CCN3CCc4ccc(OCC(F)F)nc4CC3)CC2)cn1 [I′-53]
Ki ([1]; [3H]-Methylspiperone 1.2 nM): > 2200 nM | Ki [3]: 0.32 nM

Cc1ncc(OCC(=O)N[C@H]2CC[C@H](CCN3CCc4nc(OCC(F)F)sc4CC3)CC2)cn1 [I′-54]
Ki ([1]; [3H]-Methylspiperone 1.2 nM): 1600 nM | Ki [3]: 0.32 nM

Cc1ncc(CC(=O)N[C@H]2CC[C@H](CCN3CCc4nc(OCC(C)(F)F)sc4CC3)CC2)cn1 [I′-55]
Ki ([1]; [3H]-Methylspiperone 1.2 nM): 950 nM | Ki [3]: 0.16 nM

Cc1ncc(CC(=O)N[C@H]2CC[C@H](CCN3CCc4nc(OCC(F)F)sc4CC3)CC2)cn1 [I′-56]
Ki ([1]; [3H]-Methylspiperone 1.2 nM): 1400 nM | Ki [3]: 0.3 nM

Cc1ncc(CC(=O)N[C@H]2CC[C@H](CCN3CCc4cc(F)c(OCC(F)F)nc4CC3)CC2)o1 [I′-57]
Ki ([1]; [3H]-Methylspiperone 1.2 nM): > 2200 nM | Ki [3]: 0.52 nM
